Drawing on patent publication US8486939B2, “Pyrimidinyl and 1,3,5-triazinyl benzimidazoles and their use in cancer therapy” (Pathway Therapeutics Inc., priority 2009, dated 2013), this text covers IC50 and melting point for 15 compounds.

The target of one data set is p110α/p85 (Homo sapiens, UniProt P42336). The data set can be described thus: Inhibition of isolated enzyme (lipid kinase assay, [γ33P]ATP, TLC). It is filed as biochemical. The conditions noted are these: recombinant enzyme, 100 μM ATP, 1 hr room temperature, average of two experiments. As to the method: (§1) Compounds were evaluated for their ability to inhibit Class I PI 3-kinase enzymes p110δ/p85, p110α/p85, and p110β/p85. Reaction mixtures comprising 0.1 μg of a recombinant enzyme, 10 μg of L-α-phosphatidylinositol, and 2× Lipid Kinase Buffer (40 mM Tris-HCl, pH 7.4, 200 mM NaCl, 1 mM EDTA), which contains either DMSO only as a control or the test compound in DMSO (the final DMSO concentration is 1%), were activated by the addition of an ATP mix (5 mM MgCl2, 100 μM ATP, and 0.1 μL [γ^33P]ATP). Reactions were incubated at room temperature for 1 hr, and then stopped by the addition of 1M HCl. The lipids were then extracted using a two step procedure. Firstly, 200 μL of chloroform/methanol (1:1) was added, the biphasic reactions mixed and centrifuged briefly, and the inorganic phase was removed and discarded. Following this, 80 μL of methanol:HCl (1:1) was added and the same procedure followed. The organic phase (70 μL) was then transferred to a clean 1.6 mL tube and the reactions were dried using a Speedvac, with no heating, for […]. The reactions were spotted onto TLC plates (Merck Ltd) and developed for 1 hr in propanol-1:2 M acetic acid (13:7). The TLC plates were then dried at room temperature and quantified using a phosphorimager (StormImager, Amersham). Nine compound concentrations were used for each test compound to determine its IC50 value. Each experiment was performed twice and the average IC50 value is used herein.
Sequence of p110α/p85 (P42336 whole entry): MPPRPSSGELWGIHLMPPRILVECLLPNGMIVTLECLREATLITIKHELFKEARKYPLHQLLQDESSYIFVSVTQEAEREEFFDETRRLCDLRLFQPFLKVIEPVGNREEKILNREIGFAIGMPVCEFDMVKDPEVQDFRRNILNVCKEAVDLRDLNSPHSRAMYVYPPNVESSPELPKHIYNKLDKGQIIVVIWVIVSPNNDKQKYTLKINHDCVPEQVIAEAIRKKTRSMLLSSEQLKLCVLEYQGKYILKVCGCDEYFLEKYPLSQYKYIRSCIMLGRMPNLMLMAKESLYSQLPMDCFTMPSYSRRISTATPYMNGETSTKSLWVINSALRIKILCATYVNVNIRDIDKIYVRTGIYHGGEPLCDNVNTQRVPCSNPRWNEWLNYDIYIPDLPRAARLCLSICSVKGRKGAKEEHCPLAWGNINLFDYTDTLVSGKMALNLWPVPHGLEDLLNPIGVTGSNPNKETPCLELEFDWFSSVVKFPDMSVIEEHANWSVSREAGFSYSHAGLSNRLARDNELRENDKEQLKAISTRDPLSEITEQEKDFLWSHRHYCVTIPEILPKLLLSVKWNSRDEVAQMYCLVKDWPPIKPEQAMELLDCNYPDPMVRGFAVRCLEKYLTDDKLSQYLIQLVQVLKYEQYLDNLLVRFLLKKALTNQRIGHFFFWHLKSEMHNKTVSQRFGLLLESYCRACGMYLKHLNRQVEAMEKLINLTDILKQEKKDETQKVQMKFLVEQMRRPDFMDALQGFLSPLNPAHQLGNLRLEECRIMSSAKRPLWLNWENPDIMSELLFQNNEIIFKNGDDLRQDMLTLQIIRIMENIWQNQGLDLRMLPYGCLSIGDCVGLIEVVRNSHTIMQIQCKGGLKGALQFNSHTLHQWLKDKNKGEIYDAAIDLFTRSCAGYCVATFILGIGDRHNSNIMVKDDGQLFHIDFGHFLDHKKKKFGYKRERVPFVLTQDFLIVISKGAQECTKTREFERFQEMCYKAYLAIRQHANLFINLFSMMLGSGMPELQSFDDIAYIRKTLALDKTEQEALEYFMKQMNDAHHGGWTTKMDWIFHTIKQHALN
Sequence of p110α/p85 (P27986 whole entry partner): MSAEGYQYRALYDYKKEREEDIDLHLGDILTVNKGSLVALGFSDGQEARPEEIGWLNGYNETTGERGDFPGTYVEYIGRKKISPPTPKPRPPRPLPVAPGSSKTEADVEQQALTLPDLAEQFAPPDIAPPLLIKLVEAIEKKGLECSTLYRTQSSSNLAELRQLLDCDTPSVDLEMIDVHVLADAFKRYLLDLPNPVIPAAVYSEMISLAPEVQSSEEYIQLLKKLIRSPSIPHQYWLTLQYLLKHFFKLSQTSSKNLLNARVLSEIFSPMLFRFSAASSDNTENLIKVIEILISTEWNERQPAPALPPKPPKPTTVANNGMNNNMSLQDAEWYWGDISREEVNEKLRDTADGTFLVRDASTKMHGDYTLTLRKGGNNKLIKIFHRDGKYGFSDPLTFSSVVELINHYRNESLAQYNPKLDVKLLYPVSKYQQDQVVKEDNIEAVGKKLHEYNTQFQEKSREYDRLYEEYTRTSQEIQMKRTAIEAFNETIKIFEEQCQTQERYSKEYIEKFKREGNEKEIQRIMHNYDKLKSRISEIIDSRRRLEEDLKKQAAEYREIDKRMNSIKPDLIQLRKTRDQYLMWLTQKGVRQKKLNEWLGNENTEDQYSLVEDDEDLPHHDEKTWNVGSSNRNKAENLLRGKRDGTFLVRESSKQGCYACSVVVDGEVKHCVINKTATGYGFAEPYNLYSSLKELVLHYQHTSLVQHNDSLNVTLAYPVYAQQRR

Another data set addresses p110β/p85 (Homo sapiens, UniProt P42338). Described as above. The class given is biochemical. The conditions noted are these: recombinant enzyme, 100 μM ATP, 1 hr room temperature, average of two experiments. The method, then:
as §1

A further data set deals with p110δ/p85 (Homo sapiens, UniProt O00329). The description is as above. The class given is biochemical. Conditions: recombinant enzyme, 100 μM ATP, 1 hr room temperature, average of two experiments. As to the method:
as §1

For another data set, the system named is NZB5. The data set can be described thus: Cellular growth inhibition (3H-thymidine incorporation). It is filed as cell-based. Conditions: Homo sapiens, five days incubation, 3H-thymidine over the last 6 hrs, read-out: Cell IC50* NZB5. As to the method:
(§2) The compounds were evaluated against two early passage human cell lines NZB5 and NZOV9 (Marshall et al., Oncol. Res. 2004, 14, 297). The cells were grown in ITS medium (α-modified minimal essential medium supplemented insulin, transferrin, selenite, and 5% fetal bovine serum) and grown on 96-well tissue culture plates under an atmosphere of 5% O2, 5% CO2, and 90% N2. Individual wells contained 500-1,000 cells (depending on the growth rate) in a volume of 150 μL. Compounds were added at 10-fold concentration steps to a maximum of 20 μM and plates were incubated for five days, with ^3H-thymidine being added over the last 6 hrs. Cells were harvested and incorporated radioactivity measured. Duplicate samples were analyzed for each compound dose with multiple control samples. Data were fitted by a least-squares method to an exponential of the form y=y0+ae^−bx, where y is the radioactivity (corrected for background and normalized to 100% of the control), x is the […], and y0, a, and b are variables, and the IC50 value defined as the compound concentration reducing ^3H-thymidine levels by 50%.

The next data set deals with NZOV9. The data set is described as above. Conditions: Homo sapiens, five days incubation, 3H-thymidine over the last 6 hrs, read-out: Cell IC50* NZOV9. The class given is cell-based. The method, then: as §2

Sequence of p110δ/p85 (O00329 whole entry, species assumed): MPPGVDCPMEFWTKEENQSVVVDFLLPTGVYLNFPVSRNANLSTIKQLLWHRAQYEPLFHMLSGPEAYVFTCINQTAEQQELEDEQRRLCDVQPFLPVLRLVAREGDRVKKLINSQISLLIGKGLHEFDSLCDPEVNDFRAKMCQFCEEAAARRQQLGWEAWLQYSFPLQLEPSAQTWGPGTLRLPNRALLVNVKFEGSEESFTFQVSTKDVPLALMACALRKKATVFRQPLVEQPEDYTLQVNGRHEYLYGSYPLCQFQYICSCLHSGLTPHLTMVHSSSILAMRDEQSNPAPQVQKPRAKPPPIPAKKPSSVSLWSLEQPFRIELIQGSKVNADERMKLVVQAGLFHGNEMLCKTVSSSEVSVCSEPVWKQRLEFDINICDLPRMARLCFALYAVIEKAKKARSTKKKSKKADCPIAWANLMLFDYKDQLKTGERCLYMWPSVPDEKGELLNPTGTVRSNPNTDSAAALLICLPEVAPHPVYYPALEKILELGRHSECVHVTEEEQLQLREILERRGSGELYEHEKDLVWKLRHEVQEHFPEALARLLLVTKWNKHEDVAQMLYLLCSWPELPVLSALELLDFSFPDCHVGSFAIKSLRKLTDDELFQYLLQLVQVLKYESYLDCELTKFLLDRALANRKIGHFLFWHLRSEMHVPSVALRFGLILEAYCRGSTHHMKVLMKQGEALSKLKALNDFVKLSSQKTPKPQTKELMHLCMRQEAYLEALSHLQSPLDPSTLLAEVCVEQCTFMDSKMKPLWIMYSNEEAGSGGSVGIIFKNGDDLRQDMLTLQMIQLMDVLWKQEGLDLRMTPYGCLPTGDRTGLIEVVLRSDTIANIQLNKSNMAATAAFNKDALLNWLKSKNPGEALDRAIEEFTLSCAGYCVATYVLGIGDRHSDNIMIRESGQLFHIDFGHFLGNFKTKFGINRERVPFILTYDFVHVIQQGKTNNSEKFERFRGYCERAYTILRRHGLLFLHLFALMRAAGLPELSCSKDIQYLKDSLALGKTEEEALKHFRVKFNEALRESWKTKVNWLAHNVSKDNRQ
Sequence of p110δ/p85 (P27986 whole entry partner, species assumed): as the sequence (P27986 whole entry partner) above
Sequence of p110β/p85 (P42338 whole entry, species assumed): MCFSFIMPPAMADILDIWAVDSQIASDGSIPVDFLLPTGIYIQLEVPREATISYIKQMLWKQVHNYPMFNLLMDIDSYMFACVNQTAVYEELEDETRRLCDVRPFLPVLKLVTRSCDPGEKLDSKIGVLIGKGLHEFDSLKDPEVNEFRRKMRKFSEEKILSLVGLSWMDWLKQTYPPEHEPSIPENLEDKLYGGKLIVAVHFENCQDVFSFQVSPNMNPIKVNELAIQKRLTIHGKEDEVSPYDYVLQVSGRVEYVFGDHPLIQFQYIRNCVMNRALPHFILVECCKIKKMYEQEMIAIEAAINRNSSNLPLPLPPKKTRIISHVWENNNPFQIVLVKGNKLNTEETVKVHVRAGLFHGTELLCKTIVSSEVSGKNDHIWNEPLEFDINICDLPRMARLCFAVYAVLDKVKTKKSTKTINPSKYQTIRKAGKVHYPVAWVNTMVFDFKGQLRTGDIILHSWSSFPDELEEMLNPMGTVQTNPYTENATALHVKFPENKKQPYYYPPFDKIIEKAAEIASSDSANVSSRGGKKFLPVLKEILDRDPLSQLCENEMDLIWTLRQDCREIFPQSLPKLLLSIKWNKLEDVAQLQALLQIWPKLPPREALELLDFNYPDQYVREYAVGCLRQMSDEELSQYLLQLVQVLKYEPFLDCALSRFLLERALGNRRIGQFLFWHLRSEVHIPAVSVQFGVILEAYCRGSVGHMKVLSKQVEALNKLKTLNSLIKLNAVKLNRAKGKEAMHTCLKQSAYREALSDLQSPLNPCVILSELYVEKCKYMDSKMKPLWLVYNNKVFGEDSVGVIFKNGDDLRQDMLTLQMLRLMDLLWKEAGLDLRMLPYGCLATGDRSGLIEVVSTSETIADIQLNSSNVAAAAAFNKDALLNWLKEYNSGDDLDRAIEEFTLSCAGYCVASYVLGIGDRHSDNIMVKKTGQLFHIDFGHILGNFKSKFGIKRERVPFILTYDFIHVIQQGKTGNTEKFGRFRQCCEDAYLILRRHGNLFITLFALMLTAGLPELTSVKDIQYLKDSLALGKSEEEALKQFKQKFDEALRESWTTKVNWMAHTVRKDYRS
Sequence of p110β/p85 (P27986 whole entry partner, species assumed): as the sequence (P27986 whole entry partner) above

Consider `COc1ccncc1Nc1nc(N2CCOCC2)nc(-n2c(C(F)F)nc3ccccc32)n1` [Example 26, 4-[2-(difluoromethyl)-1H-benzimidazol-1-yl]-N-(4-methoxy-3-pyridinyl)-6-(4-morpholinyl)-1,3,5-triazin-2-amine], for which the melting point (in general, the temperature of the solid-liquid transition) is 161 to 163 °C. In addition, on p110α/p85, the IC50 (usually the point on the concentration scale where inhibition reaches its midpoint) was less than 100 nM. In addition, the IC50 at p110β/p85 fell in the range of 100 to 1000 nM. For the same compound, the IC50 at p110δ/p85 is less than 100 nM. Moreover, the IC50 in the data set on NZB5 was 100 to 1000 nM. The concentration for half-maximal inhibition (IC50) in the data set with NZOV9 is 100 to 1000 nM.

On to `COc1cc(Nc2nc(N3CCOCC3)nc(-n3c(C(F)F)nc4c(OC)cccc43)n2)ncn1` [Example 32, 4-(2-(difluoromethyl)-4-methoxy-1H-benzimidazol-1-yl)-N-(6-methoxypyrimidin-4-yl)-6-morpholino-1,3,5-triazin-2-amine], for which the melting point lay within 256 to 259 °C. For the same compound, the IC50 on p110α/p85 is less than 100 nM. Besides, on p110β/p85, the 50% inhibitory concentration (IC50) was in the range of 100 to 1000 nM. Moreover, the IC50 at p110δ/p85 was less than 100 nM. Further, the IC50 with NZB5 was more than 10000 nM. Besides, the IC50 in the data set with NZOV9 was less than 100 nM.

As to `O=S(=O)(c1ccccc1)c1nc(N2CCOCC2)nc(-n2c(C(F)F)nc3ccccc32)n1` [Example 12, 2-(difluoromethyl)-1-[4-(4-morpholinyl)-6-(phenylsulfonyl)-1,3,5-triazin-2-yl]-1H-benzimidazole], the melting point was in the range of 237 to 239 °C. For the same compound, the IC50 on p110α/p85 lay in the range of 1000 to 10000 nM. Besides, the IC50 on p110β/p85 lay in the range of 1000 to 10000 nM. For the same compound, the IC50 on p110δ/p85 was 1000 to 10000 nM. For the same compound, the IC50 in the data set on NZB5 was more than 10000 nM. In the data set on NZOV9, the IC50 was more than 10000 nM.

`FC(F)c1nc2ccccc2n1-c1nc(NCc2ccccn2)nc(N2CCOCC2)n1` [Example 13, 4-[2-(difluoromethyl)-1H-benzimidazol-1-yl]-6-(4-morpholinyl)-N-(2-pyridinylmethyl)-1,3,5-triazin-2-amine] had a melting point of 192 to 193 °C. In addition, the IC50 on p110α/p85 was less than 100 nM. The IC50 at p110β/p85 is less than 100 nM. Besides, at p110δ/p85, the IC50 is less than 100 nM. For the same compound, the IC50 in the data set on NZB5 lay in the range of 100 to 1000 nM. The IC50 with NZOV9 lay in the range of 100 to 1000 nM.

Consider `FC(F)c1nc2ccccc2n1-c1nc(Nc2ccncc2)nc(N2CCOCC2)n1` [Example 17, 4-[2-(difluoromethyl)-1H-benzimidazol-1-yl]-6-(4-morpholinyl)-N-(4-pyridinyl)-1,3,5-triazin-2-amine], for which the melting point lay in the range of 222 to 224 °C. Moreover, on p110α/p85, the IC50 is less than 100 nM. Besides, the IC50 on p110β/p85 is 100 to 1000 nM. In addition, the concentration for half-maximal inhibition (IC50) on p110δ/p85 was less than 100 nM. In addition, the IC50 in the data set on NZB5 is less than 100 nM. In addition, the IC50 in the data set with NZOV9 is less than 100 nM.

Turning to `FC(F)c1nc2ccccc2n1-c1nc(Sc2ccccc2)nc(N2CCOCC2)n1` [Example 11, 2-(difluoromethyl)-1-[4-(4-morpholinyl)-6-(phenylsulfanyl)-1,3,5-triazin-2-yl]-1H-benzimidazole], the melting point fell in the range of 245 to 248 °C. Moreover, the IC50 on p110α/p85 was more than 10000 nM. Moreover, on p110β/p85, the IC50 is more than 10000 nM. For the same compound, the IC50 at p110δ/p85 lay in the range of 1000 to 10000 nM. In addition, in the data set with NZB5, the IC50 is more than 10000 nM. Also, the IC50 with NZOV9 is more than 10000 nM.

For `FC(F)c1nc2ccccc2n1-c1nc(NCc2cccnc2)nc(N2CCOCC2)n1` [Example 14, 4-[2-(difluoromethyl)-1H-benzimidazol-1-yl]-6-(4-morpholinyl)-N-(3-pyridinylmethyl)-1,3,5-triazin-2-amine], the melting point lay within 160 to 161 °C. Further, the IC50 on p110α/p85 was in the range of 100 to 1000 nM. Besides, the IC50 at p110β/p85 is 100 to 1000 nM. In addition, the IC50 at p110δ/p85 was less than 100 nM. Besides, the IC50 in the data set on NZB5 lay in the range of 1000 to 10000 nM. The IC50 in the data set on NZOV9 was in the range of 100 to 1000 nM.

In turn, `COc1cccc2c1nc(C(F)F)n2-c1nc(Nc2ccc(Cl)nc2)nc(N2CCOCC2)n1` [Example 30, N-(6-chloro-3-pyridinyl)-4-[2-(difluoromethyl)-4-methoxy-1H-benzimidazol-1-yl]-6-(4-morpholinyl)-1,3,5-triazin-2-amine] registered a melting point of 260 to 262 °C. Also, the IC50 at p110α/p85 was less than 100 nM. Moreover, the IC50 at p110β/p85 was in the range of 100 to 1000 nM. On p110δ/p85, the concentration for half-maximal inhibition (IC50) is less than 100 nM. The IC50 in the data set with NZB5 is less than 100 nM. In addition, the IC50 with NZOV9 is less than 100 nM.

Regarding `COc1cccc2c1nc(C(F)F)n2-c1nc(Nc2ccc(N(C)C)nc2)nc(N2CCOCC2)n1` [Example 39, N^5-[4-[2-(difluoromethyl)-4-methoxy-1H-benzimidazol-1-yl]-6-(4-morpholinyl)-1,3,5-triazin-2-yl]-N^2,N^2-dimethyl-2,5-pyridinediamine], the melting point fell in the range of 136 to 137 °C. In addition, on p110α/p85, the half-maximal inhibitory concentration (IC50) is less than 100 nM. For the same compound, the IC50 on p110β/p85 lay in the range of 100 to 1000 nM. For the same compound, on p110δ/p85, the IC50 was less than 100 nM. The IC50 in the data set on NZB5 is less than 100 nM. Moreover, the IC50 in the data set on NZOV9 is less than 100 nM.

The compound `COc1cccc2c1nc(C(F)F)n2-c1nc(Nc2cncnc2)nc(N2CCOCC2)n1` [Example 31, 4-[2-(difluoromethyl)-4-methoxy-1H-benzimidazol-1-yl]-6-(4-morpholinyl)-N-(5-pyrimidinyl)-1,3,5-triazin-2-amine] yielded a melting point of 293 to 295 °C. For the same compound, the half-maximal inhibitory concentration (IC50) on p110α/p85 is less than 100 nM. Further, the IC50 on p110β/p85 was in the range of 100 to 1000 nM. In addition, on p110δ/p85, the IC50 was less than 100 nM. In the data set with NZB5, the IC50 was less than 100 nM. The IC50 in the data set with NZOV9 is less than 100 nM.

The compound `CNc1ccc(Nc2nc(N3CCOCC3)nc(-n3c(C(F)F)nc4c(OC)cccc43)n2)cn1` [Example 38, N^5-[4-[2-(difluoromethyl)-4-methoxy-1H-benzimidazol-1-yl]-6-(4-morpholinyl)-1,3,5-triazin-2-yl]-N^2-methyl-2,5-pyridinediamine] gave a melting point of 218 to 221 °C. On p110α/p85, the IC50 was less than 100 nM. Moreover, the IC50 at p110β/p85 fell in the range of 100 to 1000 nM. Moreover, the half-maximal inhibitory concentration (IC50) at p110δ/p85 is less than 100 nM. In addition, the IC50 in the data set with NZB5 was less than 100 nM. In the data set on NZOV9, the IC50 was less than 100 nM.

For `CS(=O)(=O)c1nc2ccccc2n1-c1nc(Nc2cccnc2)nc(N2CCOCC2)n1` [Example 5, 4-[2-(methylsulfonyl)-1H-benzimidazol-1-yl]-6-(4-morpholinyl)-N-(3-pyridinyl)-1,3,5-triazin-2-amine], the melting point was 208 to 211 °C. For the same compound, the IC50 at p110α/p85 fell in the range of 100 to 1000 nM. Further, the IC50 at p110β/p85 is 100 to 1000 nM. At p110δ/p85, the IC50 is less than 100 nM. In the data set with NZB5, the IC50 lay within 100 to 1000 nM. Moreover, in the data set with NZOV9, the IC50 was 100 to 1000 nM.

Regarding `FC(F)c1nc2ccccc2n1-c1nc(NCc2ccccc2)nc(N2CCOCC2)n1` [Example 8, N-benzyl-4-[2-(difluoromethyl)-1H-benzimidazol-1-yl]-6-(4-morpholinyl)-1,3,5-triazin-2-amine], the melting point lay within 185 to 188 °C. Moreover, the IC50 at p110α/p85 lay in the range of 100 to 1000 nM. Moreover, the IC50 at p110β/p85 was less than 100 nM. Besides, the IC50 at p110δ/p85 was less than 100 nM. Besides, the half-maximal inhibitory concentration (IC50) in the data set with NZB5 was 100 to 1000 nM. Moreover, in the data set with NZOV9, the IC50 lay in the range of 100 to 1000 nM.

In turn, `COc1cccc2c1nc(C(F)F)n2-c1nc(Nc2ccncn2)nc(N2CCOCC2)n1` [Example 36, 4-[2-(difluoromethyl)-4-methoxy-1H-benzimidazol-1-yl]-6-(4-morpholinyl)-N-(4-pyrimidinyl)-1,3,5-triazin-2-amine] came in with a melting point of 234 to 236 °C. For the same compound, at p110α/p85, the concentration for half-maximal inhibition (IC50) was less than 100 nM. Also, on p110β/p85, the IC50 was 100 to 1000 nM. For the same compound, on p110δ/p85, the IC50 was less than 100 nM. The IC50 in the data set with NZB5 is less than 100 nM. Also, the IC50 in the data set on NZOV9 was less than 100 nM.

For `FC(F)c1nc2ccccc2n1-c1nc(Oc2ccccc2)nc(N2CCOCC2)n1` [Example 10, 2-(difluoromethyl)-1-[4-(4-morpholinyl)-6-phenoxy-1,3,5-triazin-2-yl]-1H-benzimidazole], the melting point lay within 228 to 231 °C. Further, the half-maximal inhibitory concentration (IC50) on p110α/p85 is more than 10000 nM. The IC50 on p110β/p85 was more than 10000 nM. The 50% inhibitory concentration (IC50) on p110δ/p85 lay in the range of 1000 to 10000 nM. The half-inhibitory concentration (IC50) in the data set with NZB5 was more than 10000 nM. Moreover, the IC50 with NZOV9 is 1000 to 10000 nM.
